Reference: US20250230193A1, “CYCLIC COMPOUND HAVING SELECTIVE KRAS INHIBITORY EFFECT ON HRAS AND NRAS” (CHUGAI SEIYAKU KABUSHIKI KAISHA, priority 2022, published 2025)
*1 amine or outer side, *2 acyl side, *3 side chain or, on linkers, in order; H or OH if unused. Where a SMILES comes first, the peptide text is derived from it. Bridges are numbered along the chain shown (N, C = ends). [ ]: non-standard residue; d: D form. The star is where a group is joined. hPhe(3-Cl-4-CF3) = N[C@@H](CCc1ccc(C(F)(F)F)c(Cl)c1)C(=O)O; NPrPhe(4-CF3) = CCCN[C@@H](Cc1ccc(C(F)(F)F)cc1)C(=O)O; X10 = CCCN([C@@H](Cc1ccc(F)cc1)C(=O)[*:2])[*:1]; NMeGly(cPent) = CN[C@H](C(=O)O)C1CCCC1; NMeD = CN[C@@H](CC(=O)O)C(=O)O; NMeL = CN[C@@H](CC(C)C)C(=O)O; X14 = N#CCN(CC(=O)[*:2])[*:1]; Morpholide = C1CN(*)CCO1; Ac5c = NC1(C(=O)O)CCCC1; Sar = CNCC(=O)O

How the values were obtained:
[1] = molecular target: GDP-bound HRAS wild-type protein (Homo sapiens, UniProt P01112); assay: Binding to HRAS by surface plasmon resonance (SPR), Single Cycle Kinetics
[2] = molecular target: GDP-bound NRAS wild-type protein (Homo sapiens, UniProt P01111); assay: Binding to NRAS by surface plasmon resonance (SPR), Single Cycle Kinetics
Chain of GDP-bound NRAS wild-type protein (P01111 whole entry): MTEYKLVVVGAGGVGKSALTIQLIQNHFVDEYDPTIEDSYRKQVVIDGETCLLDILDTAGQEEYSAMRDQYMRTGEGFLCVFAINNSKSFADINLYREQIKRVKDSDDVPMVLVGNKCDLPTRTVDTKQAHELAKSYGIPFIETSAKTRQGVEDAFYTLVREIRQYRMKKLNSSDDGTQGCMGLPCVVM

Chain of GDP-bound HRAS wild-type protein (P01112 whole entry): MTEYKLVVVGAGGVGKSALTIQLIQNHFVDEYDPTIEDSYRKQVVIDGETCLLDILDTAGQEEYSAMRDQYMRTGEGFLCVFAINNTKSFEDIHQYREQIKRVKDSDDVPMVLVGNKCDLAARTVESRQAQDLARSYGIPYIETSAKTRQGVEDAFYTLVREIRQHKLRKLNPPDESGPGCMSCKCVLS

CCCN1C(=O)CN(C)C(=O)CN(C)C(=O)[C@H]([C@@H](C)CC)NC(=O)[C@H](CC(C)C)N(C)C(=O)C[C@@H](C(=O)N2CCOCC2)N(C)C(=O)[C@H](C2CCCC2)N(C)C(=O)C2(CCCC2)NC(=O)[C@@H]2CCCN2C(=O)[C@H](CCc2ccc(C(F)(F)F)c(Cl)c2)NC(=O)CN(C)C(=O)[C@@H]1Cc1ccc(F)cc1 [PP0214] ([NMeL]I[Sar][Sar][X10][Sar][hPhe(3-Cl-4-CF3)]P[Ac5c][NMeGly(cPent)][NMeD]-Morpholide; lactam N-11)
HRAS/KRAS (ratio of KD for GDP-bound HRAS wild-type to KD for KRAS) ([1]; SPR): C (A compound having a KD ratio of 0.1 or more and less than 3 is denoted as C)
NRAS/KRAS (ratio of KD for GDP-bound NRAS wild-type to KD for KRAS) ([2]; SPR): B (a compound having 3 or more and less than 10 is denoted as B)

CCOC[C@H]1C(=O)N[C@@H]([C@@H](C)CC)C(=O)N(C2CC2)CC(=O)N(C)[C@H]2C/C=C\CCN(C2=O)[C@@H](Cc2ccc(C)cc2)C(=O)N(C)CC(=O)N[C@@H](CCc2ccc(Cl)c(Cl)c2)C(=O)N2C[C@H](OCC)C[C@H]2C(=O)NC2(CC(C)(C)C2)C(=O)N(C)[C@@H](CC2CCC2)C(=O)N(C)[C@H](C(=O)N(C)C)CC(=O)N1C [PP2762]
HRAS/KRAS (ratio of KD value with respect to GDP-bound HRAS wild-type protein to KD value with respect to KRAS) ([1]; class symbols): A (a compound having 10 or more and less than 20 is denoted as A)
NRAS/KRAS (ratio of KD value with respect to GDP-bound NRAS wild-type protein to KD value with respect to KRAS) ([2]; class symbols): A (a compound having 10 or more and less than 20 is denoted as A)

CCO[C@@H]1C[C@H]2C(=O)NC3(CCC3)C(=O)N(C)[C@@H](C3CCCC3)C(=O)N(C)[C@H](C(=O)N(C)C)CC(=O)N(C)[C@@H](CC3CCCC3)C(=O)N[C@@H]([C@@H](C)CC)C(=O)N(C)CC(=O)N(C)[C@H]3C/C=C\CCN(C3=O)[C@@H](Cc3ccc(C)cc3)C(=O)N(C)CC(=O)N[C@@H](CCc3ccc(CC)c(F)c3)C(=O)N2C1 [PP2686]
HRAS/KRAS (ratio of KD value with respect to GDP-bound HRAS wild-type protein to KD value with respect to KRAS) ([1]; class symbols): A (a compound having 10 or more and less than 20 is denoted as A)
NRAS/KRAS (ratio of KD value with respect to GDP-bound NRAS wild-type protein to KD value with respect to KRAS) ([2]; class symbols): A (a compound having 10 or more and less than 20 is denoted as A)

CC[C@H](C)[C@@H]1NC(=O)[C@H](CC)N(C)C(=O)C[C@@H](C(=O)N(C)C)N(C)C(=O)[C@H](C2CCCC2)N(C)C(=O)C2(CCC2)NC(=O)[C@@H]2CCN2C(=O)[C@H](CCc2cc(F)c(C(F)(F)F)c(F)c2)NC(=O)CN(C)C(=O)[C@H](Cc2ccc(C(F)(F)F)cc2)N2CCCCC[C@@H](C2=O)N(C)C(=O)CN(C)C1=O [PP0654]
HRAS/KRAS (ratio of KD value with respect to GDP-bound HRAS wild-type protein to KD value with respect to KRAS) ([1]; SPR): B (a compound having 3 or more and less than 10 is denoted as B)
NRAS/KRAS (ratio of KD value with respect to GDP-bound NRAS wild-type protein to KD value with respect to KRAS) ([2]; SPR): B (a compound having 3 or more and less than 10 is denoted as B)

CCO[C@@H]1C[C@H]2C(=O)NC3(CC(C)(C)C3)C(=O)N(C)[C@@H](C3CCCC3)C(=O)N(C)[C@H](C(=O)N(C)C)CC(=O)N(C)[C@@H](CC(F)(F)F)C(=O)N[C@@H]([C@@H](C)CC)C(=O)N(C)CC(=O)N(C)[C@H]3C/C=C\CCN(C3=O)[C@@H](Cc3ccc(C(F)(F)F)cc3)C(=O)N(C)CC(=O)N[C@@H](CCc3ccc(C(F)(F)F)c(Cl)c3)C(=O)N2C1 [PP2833]
HRAS/KRAS (ratio of KD value with respect to GDP-bound HRAS wild-type protein to KD value with respect to KRAS) ([1]; class symbols): A (a compound having 10 or more and less than 20 is denoted as A)
NRAS/KRAS (ratio of KD value with respect to GDP-bound NRAS wild-type protein to KD value with respect to KRAS) ([2]; class symbols): A (a compound having 10 or more and less than 20 is denoted as A)

CC[C@H](C)[C@@H]1NC(=O)[C@H](CC)N(C)C(=O)C[C@@H](C(=O)N(C)CC)N(C)C(=O)[C@H](C2CCCC2)N(C)C(=O)C2(CC(C)(C)C2)NC(=O)[C@@H]2C[C@@H](C)CN2C(=O)[C@H](CCc2ccc(C(F)(F)F)c(OC)c2)NC(=O)CN(C)C(=O)[C@H](Cc2ccc(C)cc2)N2CC/C=C\C[C@@H](C2=O)N(C)C(=O)CN(C)C1=O [PP1870]
HRAS/KRAS (ratio of KD value for HRAS to KD value for KRAS) ([1]; KD ratio, GDP-bound HRAS wild-type vs GDP-bound KRAS wild-type, SPR): A (a compound having 10 or more and less than 20 is denoted as A)
NRAS/KRAS (ratio of KD value for NRAS to KD value for KRAS) ([2]; KD ratio, GDP-bound NRAS wild-type vs GDP-bound KRAS wild-type, SPR): A (a compound having 10 or more and less than 20 is denoted as A)

CCCN1C(=O)CN(C)C(=O)CN(CC#N)C(=O)[C@H]([C@@H](C)CC)NC(=O)[C@H](CC(C)C)N(C)C(=O)C[C@@H](C(=O)N2CCOCC2)N(C)C(=O)[C@H](C2CCCC2)N(C)C(=O)C2(CCCC2)NC(=O)[C@@H]2CCCN2C(=O)[C@H](CCc2ccc(C(F)(F)F)c(Cl)c2)NC(=O)CN(C)C(=O)[C@@H]1Cc1ccc(C(F)(F)F)cc1 [PP0254] ([NMeL]I[X14][Sar][NPrPhe(4-CF3)][Sar][hPhe(3-Cl-4-CF3)]P[Ac5c][NMeGly(cPent)][NMeD]-Morpholide; lactam N-11)
HRAS/KRAS (ratio of KD for GDP-bound HRAS wild-type to KD for KRAS) ([1]; SPR): C (A compound having a KD ratio of 0.1 or more and less than 3 is denoted as C)
NRAS/KRAS (ratio of KD for GDP-bound NRAS wild-type to KD for KRAS) ([2]; SPR): B (a compound having 3 or more and less than 10 is denoted as B)
